Data reported in US20240165273A1, “SELF-ASSEMBLING MOLECULES ENABLING HIGH PERFORMANCE IN VIVO IMAGING IN THE SECOND NEAR INFRARED (NIR-II) WINDOW” (Baylor College of Medicine, priority 2022, published 2024).
Entries after “also recorded” stand apart in the source; their conditions may differ.

Tests used:
[1] = Optical properties (absorption, emission, quantum yield, solution) in PBS; type: physicochemical; details: PBS (50 μM)
[2] = Photostability under continuous laser excitation in PBS and bovine plasma; type: physicochemical
[3] = system: Mouse Oral Cancer 2 (MOC2) tumor; test: In vivo NIR-II tumor imaging, MOC2 tumor model
Source text: (§1) Applicants hypothesized that intravenous administration of NIR-II dyes such as XW-03-66, has the potential to accumulate in these tumors via the EPR effect, thus enabling NIR-II image-guided intraoperative resection with improved adequate margin delineation. To test this hypothesis, two different syngeneic murine models of head and neck squamous cell carcinoma were used: (1) the human papillomavirus (HPV)-positive mEER tumor model, featuring murine pharyngeal epithelial cells transformed with HPV16 E6 and E7 oncogenes and H-ras, and (2) HPV-ve, the carcinogen induced Mouse Oral Cancer 2 (MOC2) tumor model.
(§2) Test mice (n=4 for each model) were first subjected to preoperative MRI scans to establish presence of the tumor. Following MRI confirmation, tumor-bearing mice were administered XW-03-66 (dose=5 mg/kg) by tail vein injection. For comparison, a similar number of mice with MRI-confirmed tumors were injected with clinically approved ICG at a similar dose. To monitor dynamics of tumor uptake, NIR-II images were collected at different time intervals over a period of seven days.

HPV-positive mEER tumor = test: In vivo NIR-II tumor imaging, mEER tumor model; set-up: species or system mouse; details: mEER tumor bearing mice, i.v., 5 mg/kg or similar dose
Source text: as §1, §2

[4] = in PBS; cited from earlier work
[5] = in 20 minutes post-intravenous injection; cited from earlier work
serum albumin = serum albumin (Homo sapiens, UniProt P02768); details: binding with serum albumin in solution; cited from earlier work
Chain of serum albumin (P02768 25-609): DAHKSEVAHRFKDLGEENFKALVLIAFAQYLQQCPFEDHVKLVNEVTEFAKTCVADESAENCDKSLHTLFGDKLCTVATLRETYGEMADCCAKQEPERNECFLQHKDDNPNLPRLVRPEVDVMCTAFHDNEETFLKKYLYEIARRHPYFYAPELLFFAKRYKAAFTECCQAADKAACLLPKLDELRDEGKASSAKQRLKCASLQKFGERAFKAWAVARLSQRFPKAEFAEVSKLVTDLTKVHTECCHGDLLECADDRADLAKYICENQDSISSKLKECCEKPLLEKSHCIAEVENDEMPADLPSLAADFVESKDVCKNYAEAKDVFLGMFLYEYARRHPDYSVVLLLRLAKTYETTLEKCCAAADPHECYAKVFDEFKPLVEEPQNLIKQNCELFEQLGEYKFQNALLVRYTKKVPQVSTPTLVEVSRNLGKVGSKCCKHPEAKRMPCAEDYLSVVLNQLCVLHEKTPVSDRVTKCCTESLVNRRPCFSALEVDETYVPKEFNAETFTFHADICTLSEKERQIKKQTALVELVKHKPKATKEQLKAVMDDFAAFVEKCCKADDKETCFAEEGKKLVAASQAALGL

CC1(C)C(/C=C/C=C/C=C/C=C2\N(CCCCS(=O)(=O)O)c3ccc4ccccc4c3C2(C)C)=[N+](CCCCS(=O)(=O)[O-])c2ccc3ccccc3c21 [ICG, indocyanine green]
dissolution in PBS [1]: dissolve in PBS resulting in clear solutions | time of drop in fluorescence to baseline [2]: ≤ 30 min | NIR-II tumor signal ([3]; MOC2 tumor bearing mice, i.v., 5 mg/kg or similar dose, 5 mg/kg): no signal uptake in either tumor model; also recorded: faint tumor signal at 1-2 h, and no apparent signal thereafter | liver signal ([3]; tumor-bearing mice, model not distinguished): observed in the liver in images captured within the first four hours, but completely disappeared thereafter | NIR-II tumor signal (HPV-positive mEER tumor): no signal uptake in either tumor model; also recorded: faint tumor signals at 1-2 h, and no apparent signal thereafter | NIR-II QY [4]: 0.042% | fraction removed from circulation via the liver [5]: 97% | factor of fluorescence increase compared to solution in PBS (serum albumin): 23
